The values that follow are results of earlier work, collected in patent US20150051382A1 (CARDIOPEP PHARMA GMBH, priority 2010, published 2015).

The test system of data set [1] is patients with chronic congestive heart failure. The settings on record: 15 ng/kg/min, 10-hour infusion.
Data set [2] relates to patients with moderate asthma affliction. The settings on record: brief infusion; healthy and diseased subjects.
Data set [3] relates to patients with chronic congestive heart failure.

Regarding urodilatin, the “central venous pressure (CVP)” value in data set [1] (after 5 hours of infusion) is on record as “increases slightly”. The urine flow result in data set [1] (after 8 hours of infusion) is on record as “loss of action”. Moreover, the effect on bronchoconstriction result in data set [2] is listed as “temporary biological effect”. Also, in the data set on dogs, the “effect as compared to other natriuretic peptides, such as ANP” value is on record as “better effect”. Also, in data set [3] (15+30 ng/kg/min, compared with the placebo group), the “changes of the baseline in pulmonary capillary wedge pressure (PCWP)” value is reported as “significant reductions”. Also, the “changes of the cardiac index (CI)” value in data set [3] (15 and 30 ng/kg/min) is reported as “significant increase”. In data set [3] (after 6 to 8 hours of infusion), the “cardiac index (CI), reversal of effect” value is “partial drop of CI” and the “pulmonary capillary wedge pressure (PCWP), reversal of effect” value is recorded as “slight increase of PCWP”. The “symptoms, morbidity and mortality” value in data set [3] (all doses) is “significantly improved”. In addition, the “acute survival rate and hospital dwelling time” value in data set [3] (human, in vivo) was “significantly and relevantly influenced”.
